For assay [1], the system named is SARS-CoV-2-specific CD8+ T cells (CD69+CD137+) in PBMC. Format: cell-based, human.
The subject of another assay is human T cells. Nature of the assay: T cell cytokine SFC response to cross-reactive CD4 epitopes (Tables 6-8). It is filed as cell-based. As to conditions: for Total SFC: cross-reactive CD4 non-spike SARS-CoV-2 epitopes, all cytokines; for IFNg / IL5 / IL13: cross-reactive CD4 non-spike epitopes; for IFNg: IFNg spot forming cells; for IL5: IL5 spot forming cells; for IL13: IL13 spot forming cells.

The test system of assay [2] is SARS-CoV-2-specific CD4+ T cells (OX40+CD137+) in PBMC. It is filed as cell-based, human. As to conditions: CD4+ T cell epitopes identified by AIM assay; for Magnitude by # of responding donors: sum of response per responding donor.
The mark [3] stands for this setting: percent of tested donors responding.
[4] abbreviates: total response summed over donors.

Several values for one entry are separate records, joined by “and”; a condition that tells them apart may be missing. Equal values may be shown once. Read-outs that look alike come from different tables or passages of the source.

Consider KTFPPTEPKKDKKK, for which, in assay [1], the “Frequency of positive response” value is given as 50, the Magnitude of response was determined as 122 and the Sum of response came to 122.

Turning to RLQSLQTY, in assay [1], the “Frequency of positive response” value was determined as 33, the Magnitude of response was 142 and the Sum of response is recorded as 142.

Turning to KAYNVTQAF, in assay [1], the “Frequency of positive response” value was 50 and 33.

As for 820 (EEIAIILASFSASTS) [compound 820], in the assay with human T cells, the “Total SFC” value came out at 13813 SFC, the IFNg stood at 7773, the IL5 is 1587 and the IL13 is listed as 1507.

For the substance EILPVSMTK, the “Frequency of positive response” value in assay [1] was 25 and 50.

Regarding YKTFPPTEPK, in assay [1], the “Frequency of positive response” value is on record as 50, the Magnitude of response stood at 139 and the Sum of response stood at 139.

EPVLKGVKL: in assay [1], the “Frequency of positive response” value was found to be 20, the Magnitude of response was found to be 313 and the Sum of response was determined as 313.

On to 807 (LAILTALRLCAYCCN) [compound 807], for which, in the assay with human T cells, the “Total SFC” value is 1800 SFC, the IFNg worked out at 1760, the IL5 is recorded as 0 and the IL13 came out at 0.

As to HTTDPSFLGR, in assay [1], the “Frequency of positive response” value was 50, the Magnitude of response stood at 312 and the Sum of response is listed as 312.

Regarding AAISDYDYYR, in assay [1], the “Frequency of positive response” value amounted to 100, the Magnitude of response was found to be 290 and the Sum of response came to 290.

Take AISDYDYYR: in assay [1], the “Frequency of positive response” value was found to be 100, the Magnitude of response turned out to be 173 and the Sum of response was found to be 173.

With 806 (SEETGTLIVNSVLLF) [compound 806], in the assay with human T cells, the “Total SFC” value was 267 SFC, the IFNg is 267, the IL5 is 0 and the IL13 turned out to be 0.

Regarding 248 (PSGTWLTYTGAIKLD) [compound 248], in the assay on human T cells, the “Total SFC” value came out at 1227 SFC, the IFNg turned out to be 947, the IL5 amounted to 0 and the IL13 came to 0.

For the substance 245 (DDQIGYYRRATRRIR) [compound 245], in the assay on human T cells, the “Total SFC” value was found to be 787 SFC, the IFNg is on record as 400, the IL5 was found to be 0 and the IL13 was 120.

Turning to SEPVLKGVKL, in assay [1], the “Frequency of positive response” value stood at 40, the Magnitude of response was found to be 251 and the Sum of response is given as 501.

Take 848 (VKHVYQLRARSVSPK) [compound 848]: in the assay with human T cells, the “Total SFC” value turned out to be 3640 SFC, the IFNg is reported as 2947, the IL5 was 227 and the IL13 worked out at 0.

Consider 246 (DAALALLLLDRLNQL) [compound 246], for which, in the assay with human T cells, the “Total SFC” value was found to be 3813 SFC, the IFNg was determined as 3520, the IL5 is 0 and the IL13 is 0.

On to 847 (MKIILFLALITLATC) [compound 847], for which, in the assay on human T cells, the “Total SFC” value stood at 373 SFC, the IFNg amounted to 293, the IL5 came out at 0 and the IL13 is on record as 0.

On to 846 (YIINLIIKNLSKSLT) [compound 846], for which, in the assay with human T cells, the “Total SFC” value came to 1393 SFC, the IFNg turned out to be 1283, the IL5 amounted to 0 and the IL13 stood at 0.

With 849 (LYSPIFLIVAAIVFI) [compound 849], in the assay on human T cells, the “Total SFC” value was 520 SFC, the IFNg came to 400, the IL5 was found to be 0 and the IL13 amounted to 0.

Consider 247 (LLLLDRLNQLESKMS) [compound 247], for which, in the assay with human T cells, the “Total SFC” value is reported as 1053 SFC, the IFNg is recorded as 1053, the IL5 amounted to 0 and the IL13 turned out to be 0.

In the case of YQDVNCTEV, in assay [1], the “Frequency of positive response” value turned out to be 50, the Magnitude of response is on record as 243 and the Sum of response stood at 243.

For the substance VTYVPAQEK, in assay [1], the “Frequency of positive response” value is 33 and 25; the Magnitude of response is 435 and 235; the Sum of response was 435 and 235.

With LPYGANKDGIIWVAT, in assay [2] (share of donors responding), the “Frequency of response (%)” value was 14%. Further, the “Magnitude by # of responding donors” value in assay [2] amounted to 418. Also, the Sum of response in assay [2] (total response) is given as 835.

For VFAQVKQIYKTPPIK, the “Frequency of response (%)” value in assay [2] (setting [3]) was determined as 8%. The “Magnitude by # of responding donors” value in assay [2] amounted to 268. In assay [2] (setting [4]), the Sum of response was 268.

For GINASVVNIQKEIDR, the “Frequency of response (%)” value in assay [2] (setting [3]) is given as 8%. Besides, the “Magnitude by # of responding donors” value in assay [2] came to 267. Also, the Sum of response in assay [2] (setting [4]) was determined as 267.

Turning to PDLNGDVVAIDYKHY, the “Frequency of response (%)” value in assay [2] (share of donors responding) was found to be 15%. The “Magnitude by # of responding donors” value in assay [2] was found to be 215. In assay [2] (total response), this substance returned a Sum of response of 430.

The values are drawn from patent US20230293630A1, “Coronavirus T Cell Epitopes and Uses Thereof” (priority 2020, published 2023).
